According to BindingDB's records for doi:10.1016/j.ejmech.2018.12.027 (National Taiwan University, 2019):

Assay: Inhibition of influenza A virus (A/WSN/1933(H1N1)) neuraminidase using MUNANA as fluorogenic substrate preincubated for 10 mins followed by substrate addition and measured after 15 mins by fluorometric assay

**Q.** With `CCC(CC)O[C@@H]1C=C([B-](F)(F)F)C[C@H](NC(=N)N)[C@H]1NC(C)=O` as the molecule, how does the IC50 read?
**A.** Its IC50 is 20 nM.

**Q.** For `CCCCOS(=O)(=O)C1=C[C@@H](OC(CC)CC)[C@H](NC(C)=O)[C@@H](NC(=N)N)C1`, which IC50 is on record?
**A.** The IC50 was 3.3 nM.

**Q.** With `CCC(CC)O[C@@H]1C=C(S(=O)(=O)CCc2ccncc2)C[C@H](NC(=N)N)[C@H]1NC(C)=O` as the molecule, how does the IC50 read?
**A.** The IC50 was 9.8 nM.

**Q.** For `CCC(CC)O[C@@H]1C=C([B-](F)(F)F)C[C@H](N)[C@H]1NC(C)=O`, which IC50 is on record?
**A.** The IC50 was 3400 nM.

**Q.** For `CCCCOS(=O)(=O)C1=C[C@@H](OC(CC)CC)[C@H](NC(C)=O)[C@@H](N)C1`, which IC50 is on record?
**A.** Its IC50 is 27 nM.

**Q.** With `CCC(CC)O[C@@H]1C=C(S(=O)(=O)O)C[C@H](NC(=N)N)[C@H]1NC(C)=O` as the molecule, how does the IC50 read?
**A.** Its IC50 is 1.3 nM.

**Q.** For `CCC(CC)O[C@@H]1C=C(S(=O)(=O)O)C[C@H](N)[C@H]1NC(C)=O`, which IC50 is on record?
**A.** The IC50 was 1.8 nM.

**Q.** Which IC50 does the source give for `CCC(CC)O[C@@H]1C=C(S(C)(=O)=O)C[C@H](N)[C@H]1NC(C)=O` here?
**A.** Its IC50 is 180 nM.

**Q.** For `CCC(CC)O[C@@H]1C=C(B(O)O)C[C@H](NC(=N)N)[C@H]1NC(C)=O`, which IC50 is on record?
**A.** Its IC50 is 28 nM.

**Q.** Which IC50 does the source give for `CCC(CC)O[C@@H]1C=C(S(=O)(=O)CCc2ccncc2)C[C@H](N)[C@H]1NC(C)=O` here?
**A.** The IC50 was 330 nM.
